Where a name gives a salt, the structure may show the parent alone. Read-outs that look alike come from different tables or passages of the source.
Tests used:
mouse TAAR1 = mouse TAAR1 (Mus musculus (Mouse), UniProt Q923Y8); experiment: Radioligand binding assay on mouse TAAR1
Outline: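 Displacement of the tritiated oxazol-2-ylamine radioligand was measured by filtration and scintillation counting after 1 h incubation at 4 °C. Test concentrations ran 10 pM–10 μM in duplicate, with 10 μM cold ligand giving nonspecific binding. The receptor source was membranes of a stable mouse TAAR1 HEK293 line.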

rat TAAR1 = rat TAAR1 (Rattus norvegicus (Rat), UniProt Q923Y9); experiment: Radioligand binding assay on rat TAAR1
Outline: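 Membranes from HEK293 cells stably expressing rat TAAR1, with Kd checked per batch by saturation. Competition with ³H-(S)-4-[(ethyl-phenyl-amino)-methyl]-4,5-dihydro-oxazol-2-ylamine, compounds 10 pM–10 μM in duplicate, 1 hr at 4 °C. Filtration then scintillation counting; nonspecific binding defined with 10 μM unlabeled ligand.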

[1] = mouse TAAR1, HEK-293 membranes, first value of cell mouse/rat, read-out: Ki (μM) mouse
[2] = rat TAAR1, HEK-293 membranes, second value of cell mouse/rat, read-out: Ki (μM) rat

Chain of mouse TAAR1 (Q923Y8 whole entry): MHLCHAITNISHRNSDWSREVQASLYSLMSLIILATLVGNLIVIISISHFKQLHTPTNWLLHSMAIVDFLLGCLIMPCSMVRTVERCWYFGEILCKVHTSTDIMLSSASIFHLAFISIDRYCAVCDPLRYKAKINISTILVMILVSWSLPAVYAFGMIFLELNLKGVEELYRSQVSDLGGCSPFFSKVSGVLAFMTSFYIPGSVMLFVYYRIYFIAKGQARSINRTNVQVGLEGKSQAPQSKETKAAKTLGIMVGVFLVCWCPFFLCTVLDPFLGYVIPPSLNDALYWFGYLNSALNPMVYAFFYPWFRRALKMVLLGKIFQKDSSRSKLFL
Chain of rat TAAR1 (Q923Y9 whole entry): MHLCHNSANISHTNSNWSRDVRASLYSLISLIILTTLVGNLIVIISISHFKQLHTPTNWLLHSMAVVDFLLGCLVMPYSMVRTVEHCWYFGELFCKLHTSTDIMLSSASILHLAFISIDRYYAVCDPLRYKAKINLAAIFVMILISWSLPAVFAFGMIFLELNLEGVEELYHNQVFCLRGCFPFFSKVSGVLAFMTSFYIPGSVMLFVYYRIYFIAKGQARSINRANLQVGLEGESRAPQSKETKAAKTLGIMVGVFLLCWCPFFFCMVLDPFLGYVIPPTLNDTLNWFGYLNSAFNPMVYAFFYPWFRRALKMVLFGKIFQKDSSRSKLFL

Row | SMILES | Ki (mouse TAAR1; [1]) [µM] | Ki (rat TAAR1; [2]) [µM] | further results
1 | O=C(Nc1ccc(C2CNCCO2)cc1)Nc1ccccc1Cl (racemic) [Example 305, (RS)-1-(2-Chlorophenyl)-3-(4-(morpholin-2-yl)phenyl)urea hydrochloride] | 0.0266 | – | Ki (rat TAAR1; read-out: Ki (μM) rat): 0.0038 µM
2 | O=C(CCc1ccc(Cl)cc1)Nc1ccc(C2CCCNC2)cc1 (racemic) [Example 101, (RS)-3-(4-Chloro-phenyl)-N-(4-piperidin-3-yl-phenyl)-propionamide hydrochloride] | 0.002 | 0.0263 | –
3 | CSc1cnc(C(=O)Nc2ccc([C@@H]3CCCNC3)cc2)cn1 [Example 257, (S)-5-(Methylthio)-N-(4-(piperidin-3-yl)phenyl)pyrazine-2-carboxamide] | 0.786 | 0.004 | –
4 | O=C(Nc1ccc(C2CCNC2)cc1)c1ccc(Br)cn1 (racemic) [Example 87, (RS)-5-Bromo-pyridine-2-carboxylic acid (4-pyrrolidin-3-yl-phenyl)-amide hydrochloride] | 0.0051 | 0.017 | –
5 | Cc1cc(C(=O)Nc2ccc(C3CNCCO3)cc2)cc(C)n1 (racemic) [Example 295, (RS)-2,6-Dimethyl-N-(4-(morpholin-2-yl)phenyl)isonicotinamide dihydrochloride] | 0.235 | 1.2 | –
6 | CCCc1ccc(C(=O)Nc2ccc(C3CCNC3)cc2)cc1 (racemic) [Example 53, (RS)-4-Propyl-N-(4-pyrrolidin-3-yl-phenyl)-benzamide hydrochloride] | 0.0016 | 0.0053 | –
7 | O=C(Nc1ccc(CCC2CCNC2)cc1)c1ccc(Cl)cc1 (racemic) [Example 109, (RS)-4-Chloro-N-[4-(2-pyrrolidin-3-yl-ethyl)-phenyl]-benzamide hydrochloride] | 0.0017 | 0.0176 | –
8 | CSc1ccc(C(=O)Nc2ccc([C@@H]3CNCCO3)cc2)cc1 [Example 266, (R)-4-(Methylthio)-N-(4-(morpholin-2-yl)phenyl)benzamide hydrochloride] | – | – | Ki (mouse TAAR1; mouse TAAR1, HEK-293 membranes, first value of cell mouse/rat, hydrochloride, read-out: Ki (μM) mouse): 0.0163 µM; Ki (rat TAAR1; hydrochloride, read-out: Ki (μM) rat): 0.0012 µM
9 | O=C(Nc1ccc(C2CNCCO2)cc1)c1ccc(OCc2ccccc2)cc1 (racemic) [Example 192, (RS)-4-(benzyloxy)-N-(4-(morpholin-2-yl)phenyl)benzamide hydrochloride] | 0.0052 | 0.0113 | –
10 | CCc1ccc(C(=O)Nc2ccc([C@@H]3CCCNC3)cc2)cn1 [Example 297, (S)-6-Ethyl-N-(4-(piperidin-3-yl)phenyl)nicotinamide] | 0.018 | 0.0044 | –
11 | CCCc1ccc(C(=O)Nc2ccc(C3CCCNC3)cc2)cc1 (racemic) [Example 137, (RS)—N-(4-Piperidin-3-yl-phenyl)-4-propyl-benzamide hydrochloride] | 0.0062 | 0.0015 | –
12 | O=C(Nc1ccc(CCC2CCCN2)cc1)c1ccc(C(F)(F)F)cc1 (racemic) [Example 155, (RS)—N-[4-(2-Pyrrolidin-2-yl-ethyl)-phenyl]-4-trifluoromethyl-benzamide hydrochloride] | 0.0107 | 0.0009 | –
13 | O=C(Nc1ccc(C2CCNC2)cc1)Nc1ccc(Cl)c(Cl)c1 (racemic) [Example 3, (RS)-1-(3,4-Dichloro-phenyl)-3-(4-pyrrolidin-3-yl-phenyl)-urea hydrochloride] | 0.0013 | 0.0016 | –
14 | O=C(Nc1ccc(N2CCNCC2)cc1)c1ccc(Cl)cc1 [Example 59, 4-Chloro-N-(4-piperazin-1-yl-phenyl)-benzamide hydrochloride] | 0.0256 | 0.0014 | –
15 | O=C(Nc1ccc([C@H]2CCNC2)cc1)c1ccc(OCC(F)(F)F)nc1 [Example 204, (R)—N-(4-(pyrrolidin-3-yl)phenyl)-6-(2,2,2-trifluoroethoxy)nicotinamide hydrochloride] | 0.005 | 0.0043 | –
16 | CSc1cccc(C(=O)Nc2ccc([C@@H]3CCCNC3)cc2)c1 [Example 259, (S)-3-(Methylthio)-N-(4-(piperidin-3-yl)phenyl)benzamide] | 0.044 | – | Ki (rat TAAR1; read-out: Ki (μM) rat): 0.0009 µM
17 | Cc1ccc(C(=O)Nc2ccc([C@@H]3CNCCO3)cc2)cc1 [Example 195, (R)-4-Methyl-N-(4-(morpholin-2-yl)phenyl)benzamide hydrochloride] | 0.0135 | 0.0022 | –
18 | O=C(Nc1ccc(C2CCNC2)cc1)Oc1ccc(F)cc1 (racemic) [Example 15, (RS)-(4-Pyrrolidin-3-yl-phenyl)-carbamic acid 4-fluoro-phenyl ester hydrochloride] | – | – | Ki (mouse TAAR1): 0.0021 µM; Ki (rat TAAR1): 0.0081 µM
19 | CN1CCN(c2ccc(NC(=O)Nc3ccc(Cl)c(Cl)c3)cc2)CC1 [Example 2, 1-(3,4-Dichloro-phenyl)-3-[4-(4-methyl-piperazin-1-yl)-phenyl]-urea] | – | 0.001 | Ki (mouse TAAR1; read-out: Ki (μM) mouse): 0.0006 µM

Row | SMILES | Ki (mouse TAAR1; [1]) [µM] | Ki (rat TAAR1; [2]) [µM] | further results
20 | O=C(Nc1ccc(C2CCNC2)nc1)c1ccc(Cl)cc1 (racemic) [Example 140, (RS)-4-Chloro-N-(6-pyrrolidin-3-yl-pyridin-3-yl)-benzamide] | 0.245 | 0.0358 | –
21 | O=C(Nc1ccc([C@@H]2CNCCO2)cc1)c1cccc(Cl)c1 [Example 262, (R)-3-Chloro-N-(4-(morpholin-2-yl)phenyl)benzamide hydrochloride] | – | – | Ki (mouse TAAR1; read-out: Ki (μM) mouse): 0.0052 µM; Ki (rat TAAR1; read-out: Ki (μM) rat): 0.0013 µM
22 | CC1(COc2ccc(C(=O)Nc3ccc(C4CNCCO4)cc3)cc2)COC1 (racemic) [Example 228, (RS)-4-((3-Methyloxetan-3-yl)methoxy)-N-(4-(morpholin-2-yl)phenyl)benzamide] | 0.199 | 0.0608 | –
23 | O=C(Nc1ccc([C@@H]2CCCNC2)cc1)OCc1ccc(Cl)cc1 [Example 240, (S)-4-chlorobenzyl 4-(piperidin-3-yl)phenylcarbamate hydrochloride] | 0.0146 | 0.0009 | –
24 | O=C(Nc1ccc(C2CCNC2)cc1)c1ccc(Cl)cc1 (racemic) [Example 16, (RS)-4-Chloro-N-(4-pyrrolidin-3-yl-phenyl)-benzamide hydrochloride] | 0.0007 | 0.0043 | –
25 | O=C(Nc1ccc(C2CNCCO2)cc1)c1csc(-c2ncccn2)n1 (racemic) [Example 290, (RS)—N-(4-(Morpholin-2-yl)phenyl)-2-(pyrimidin-2-yl)thiazole-4-carboxamide hydrochloride] | 0.0608 | 0.324 | –
26 | O=C(Nc1ccc(C2CCCNC2)cc1)c1ncc(F)cc1F (racemic) [Example 106, (RS)-3,5-Difluoro-pyridine-2-carboxylic acid (4-piperidin-3-yl-phenyl)-amide hydrochloride] | 0.0248 | 1.43 | –
27 | CCOc1ccc(C(=O)Nc2ccc(C3CCCNC3)cc2)cc1 (racemic) [Example 97, (RS)-4-Ethoxy-N-(4-piperidin-3-yl-phenyl)-benzamide hydrochloride] | 0.0038 | 0.0193 | –
28 | O=C(Nc1ccc([C@@H]2CCCNC2)cc1)c1cnc(OCC(F)(F)F)cn1 [Example 250, (S)—N-(4-(Piperidin-3-yl)phenyl)-5-(2,2,2-trifluoroethoxy)pyrazine-2-carboxamide hydrochloride] | 0.288 | 0.0056 | –
29 | O=C(Nc1ccc(C2CNCCO2)cc1)c1ccc(Oc2ccc(C(=O)O)c(Cl)c2)cc1 (racemic) [Example 215, (RS)-2-Chloro-4-(4-(4-(morpholin-2-yl)phenylcarbamoyl)phenoxy)benzoic acid hydrochloride] | 2.82 | 2.31 | –
30 | O=C(Nc1ccc(C2CCNC2)cc1)OCCc1ccc(C(F)(F)F)cc1 (racemic) [Example 122, (RS)-(4-Pyrrolidin-3-yl-phenyl)-carbamic acid 2-(4-trifluoromethyl-phenyl)-ethyl ester] | 0.0003 | 0.0011 | –
31 | CC(C(=O)Nc1ccc(C2CCNC2)cc1)c1cccc(C#N)c1 (racemic) [Example 68, (RS)-2-(3-Cyano-phenyl)-N—((RS)-4-pyrrolidin-3-yl-phenyl)-propionamide] | 0.147 | 0.102 | –
32 | CN1CCC(c2ccc(NC(=O)c3ccc(Cl)cc3)cc2)C1 (racemic) [Example 32, (RS)-4-Chloro-N-[4-(1-methyl-pyrrolidin-3-yl)-phenyl]-benzamide] | 0.0005 | 0.0858 | –
33 | O=C(Nc1ccc(OC2CCNC2)cc1)c1ccc(Cl)cc1 (racemic) [Example 39, (RS)-4-Chloro-N-[4-(pyrrolidin-3-yloxy)-phenyl]-benzamide hydrochloride] | 0.0007 | 0.0139 | –
34 | COc1cccc(CC(=O)Nc2ccc(C3CCNC3)cc2)c1 (racemic) [Example 65, (RS)-2-(3-Methoxy-phenyl)-N-(4-pyrrolidin-3-yl-phenyl)-acetamide hydrochloride] | 0.125 | 0.352 | –
35 | CSc1ccc(C(=O)Nc2ccc(C3CNCCO3)cc2)cc1 (racemic) [Example 216, (RS)-4-(Methylthio)-N-(4-(morpholin-2-yl)phenyl)benzamide hydrochloride] | 0.0176 | – | Ki (rat TAAR1; read-out: Ki (μM) rat): 0.0012 µM
36 | O=C(Nc1ccc([C@@H]2CCCNC2)cc1)c1ccc(Cl)cn1 [Example 168, (S)-5-Chloro-N-(4-(piperidin-3-yl)phenyl)picolinamide hydrochloride] | – | 0.0026 | Ki (mouse TAAR1; read-out: Ki (μM) mouse): 0.608 µM
37 | O=C(Nc1ccc(C2CNCCO2)cc1)c1csc(-c2cnccn2)n1 (racemic) [Example 288, (RS)—N-(4-(Morpholin-2-yl)phenyl)-2-(pyrazin-2-yl)thiazole-4-carboxamide hydrochloride] | – | 0.0075 | Ki (mouse TAAR1; read-out: Ki (μM) mouse): 0.0278 µM
